In US8722665B2, “Cinnamido-pyrrolo[2,1-C][1,4]benzodiazepines as potential anticancer agents and process for the preparation thereof” (Council of Scientific & Industrial Research, priority 2008, dated 2014):

Columns and labels:
[1] = system: sixty human tumour cell lines; experiment: In vitro cytotoxicity (SRB), mean graph midpoints; assay type: cell-based; conditions: 48 h exposure
Experimental: (§1) The compounds were evaluated for in vitro anticancer activity against sixty human tumour cells derived from nine cancer types (leukemia, non-small-cell lung, colon, CNS, melanoma, ovarian, prostate, and breast cancer) as shown in Table 1a. For each compound, dose response curves for each cell line were measured at a minimum of five concentrations at 10 fold dilutions. A protocol of 48 h continuous drug exposure was used and a sulforhodamine B (SRB) protein assay was used to estimate cell viability or growth. The concentration causing 50% cell growth inhibition (GI50), total cell growth inhibition (TGI 0% growth) and 50% cell death (LC50, −50% growth) compared with the control was calculated. The Log10 GI50 (concentration in mol/L causing 50% growth inhibition) values for Cinnamido-pyrrolo[2,1-c][1,4]benzodiazepine (8b) is listed in Table 2.

[2] = system: 786-0; experiment: In vitro cytotoxicity (SRB); assay type: cell-based, human; conditions: 786-0 (Renal); 48 h continuous drug exposure
Experimental: as §1

[3] = system: A498; experiment: In vitro cytotoxicity (SRB); assay type: cell-based, human; conditions: A498 (Renal); 48 h continuous drug exposure
Experimental: as §1

[4] = system: A549/ATCC; experiment: In vitro cytotoxicity (SRB); assay type: cell-based, human; conditions: A549/ATCC (Non-small cell lung); 48 h continuous drug exposure
Experimental: as §1

[5] = system: CAKI-1; experiment: In vitro cytotoxicity (SRB); assay type: cell-based, human; conditions: CAKI-1 (Renal); 48 h continuous drug exposure
Experimental: as §1

[6] = system: CCRF-CEM; experiment: In vitro cytotoxicity (SRB); assay type: cell-based, human; conditions: CCRF-CEM (Leukemia); 48 h continuous drug exposure
Experimental: as §1

[7] = system: EKVX; experiment: In vitro cytotoxicity (SRB); assay type: cell-based, human; conditions: EKVX (Non-small cell lung); 48 h continuous drug exposure
Experimental: as §1

[8] = system: HCC-2998; experiment: In vitro cytotoxicity (SRB); assay type: cell-based, human; conditions: HCC-2998 (Colon); 48 h continuous drug exposure
Experimental: as §1

[9] = system: HCT-15; experiment: In vitro cytotoxicity (SRB); assay type: cell-based, human; conditions: HCT-15 (Colon); 48 h continuous drug exposure
Experimental: as §1

[10] = system: HOP-92; experiment: In vitro cytotoxicity (SRB); assay type: cell-based, human; conditions: 48 h continuous drug exposure
Experimental: as §1

[11] = system: KM12; experiment: In vitro cytotoxicity (SRB); assay type: cell-based, human; conditions: KM12 (Colon); 48 h continuous drug exposure
Experimental: as §1

[12] = system: LOX IMVI; experiment: In vitro cytotoxicity (SRB); assay type: cell-based, human; conditions: LOX IMVI (Melanoma); 48 h continuous drug exposure
Experimental: as §1

[13] = system: M14; experiment: In vitro cytotoxicity (SRB); assay type: cell-based, human; conditions: M14 (Melanoma); 48 h continuous drug exposure
Experimental: as §1

[14] = system: MALME-3M; experiment: In vitro cytotoxicity (SRB); assay type: cell-based, human; conditions: MALME-3M (Melanoma); 48 h continuous drug exposure
Experimental: as §1

[15] = system: MDA-MB-231/ATCC; experiment: In vitro cytotoxicity (SRB); assay type: cell-based, human; conditions: MDA-MB-231/ATCC (Breast); 48 h continuous drug exposure
Experimental: as §1

[16] = system: MOLT-4; experiment: In vitro cytotoxicity (SRB); assay type: cell-based, human; conditions: MOLT-4 (Leukemia); 48 h continuous drug exposure
Experimental: as §1

[17] = system: NCI-H226; experiment: In vitro cytotoxicity (SRB); assay type: cell-based, human; conditions: NCI-H226 (Non-small cell lung); 48 h continuous drug exposure
Experimental: as §1

[18] = system: NCI-H322M; experiment: In vitro cytotoxicity (SRB); assay type: cell-based, human; conditions: NCI-H322M (Non-small cell lung); 48 h continuous drug exposure
Experimental: as §1

[19] = system: NCI-H460; experiment: In vitro cytotoxicity (SRB); assay type: cell-based, human; conditions: NCI-H460 (Non-small cell lung); 48 h continuous drug exposure
Experimental: as §1

[20] = system: NCI-H522; experiment: In vitro cytotoxicity (SRB); assay type: cell-based, human; conditions: NCI-H522 (Non-small cell lung); 48 h continuous drug exposure
Experimental: as §1

[21] = system: OVCAR-3; experiment: In vitro cytotoxicity (SRB); assay type: cell-based, human; conditions: OVCAR-3 (Ovarian); 48 h continuous drug exposure
Experimental: as §1

[22] = system: OVCAR-4; experiment: In vitro cytotoxicity (SRB); assay type: cell-based, human; conditions: OVCAR-4 (Ovarian); 48 h continuous drug exposure
Experimental: as §1

[23] = system: PC-3; experiment: In vitro cytotoxicity (SRB); assay type: cell-based, human; conditions: PC-3 (Prostate); 48 h continuous drug exposure
Experimental: as §1

[24] = system: RPMI-8226; experiment: In vitro cytotoxicity (SRB); assay type: cell-based, human; conditions: RPMI-8226 (Leukemia); 48 h continuous drug exposure
Experimental: as §1

[25] = system: SK-MEL-28; experiment: In vitro cytotoxicity (SRB); assay type: cell-based, human; conditions: SK-MEL-28 (Melanoma); 48 h continuous drug exposure
Experimental: as §1

[26] = system: SK-MEL-5; experiment: In vitro cytotoxicity (SRB); assay type: cell-based, human; conditions: SK-MEL-5 (Melanoma); 48 h continuous drug exposure
Experimental: as §1

[27] = system: SK-OV-3; experiment: In vitro cytotoxicity (SRB); assay type: cell-based, human; conditions: SK-OV-3 (Ovarian); 48 h continuous drug exposure
Experimental: as §1

[28] = system: SN12C; experiment: In vitro cytotoxicity (SRB); assay type: cell-based, human; conditions: SN12C (Renal); 48 h continuous drug exposure
Experimental: as §1

[29] = system: SNB-19; experiment: In vitro cytotoxicity (SRB); assay type: cell-based, human; conditions: SNB-19 (CNS); 48 h continuous drug exposure
Experimental: as §1

[30] = system: SR; experiment: In vitro cytotoxicity (SRB); assay type: cell-based, human; conditions: SR (Leukemia); 48 h continuous drug exposure
Experimental: as §1

[31] = system: SW-620; experiment: In vitro cytotoxicity (SRB); assay type: cell-based, human; conditions: SW-620 (Colon); 48 h continuous drug exposure
Experimental: as §1

[32] = system: U251; experiment: In vitro cytotoxicity (SRB); assay type: cell-based, human; conditions: U251 (CNS); 48 h continuous drug exposure
Experimental: as §1

[33] = system: UACC-257; experiment: In vitro cytotoxicity (SRB); assay type: cell-based, human; conditions: UACC-257 (Melanoma); 48 h continuous drug exposure
Experimental: as §1

[34] = system: UACC-62; experiment: In vitro cytotoxicity (SRB); assay type: cell-based, human; conditions: UACC-62 (Melanoma); 48 h continuous drug exposure
Experimental: as §1

In the case of `COc1cc(/C=C/C(=O)N2CCN(C(=O)c3cc(OC)c(OC)c(OC)c3)CC2)ccc1OCCCOc1cc2c(cc1OC)C(=O)N1CCC[C@H]1C=N2` [8b, 7-methoxy-8-{3-(2-methoxy-4-(E)-3-oxo-3-[4-(3,4,5-trimethoxybenzoyl)piperazino]-1-propenylphenoxy)propoxy}-(11aS)-2,3,5,11^a-tetrahydro-5H-pyrrolo[2,1-c][1,4]benzo-diazepine-5-one], the “Log10 GI50 mean graph midpoint (MG_MID)” value [1] is reported as −6.48 mol/L, the “Log10 LC50 mean graph midpoint (MG_MID)” value [1] is reported as −4.5 and the “Log10 TGI mean graph midpoint (MG_MID)” value [1] is reported as −5.59. The GI50 [2] was 490 nM, the GI50 [3] was 210 nM and the GI50 [4] was 480 nM. It also gave a GI50 [5] of 1120 nM, a GI50 [6] of 250 nM and a GI50 [7] of 860 nM. It also gave a GI50 [8] of 360 nM, a GI50 [9] of 3390 nM and a GI50 ([10]; HOP-92, first line so named (Non-small cell lung)) of 320 nM. For the same molecule, the GI50 ([10]; HOP-92, second line so named (Non-small cell lung)) was 170 nM, the GI50 [11] was 280 nM and the GI50 [12] was 180 nM. For the same molecule, the GI50 [13] was 370 nM, the GI50 [14] was 200 nM and the GI50 [15] was 230 nM. For the same molecule, the GI50 [16] was 200 nM, the GI50 [17] was 250 nM and the GI50 [18] was 3070 nM. The GI50 [19] was 330 nM, the GI50 [20] was 660 nM and the GI50 [21] was 290 nM. For the same molecule, the GI50 [22] was 2200 nM, the GI50 [23] was 340 nM and the GI50 [24] was 650 nM. It also gave a GI50 [25] of 210 nM, a GI50 [26] of 190 nM and a GI50 [27] of 490 nM. The GI50 [28] was 330 nM, the GI50 [29] was 330 nM and the GI50 [30] was 20 nM. It also gave a GI50 [31] of 190 nM, a GI50 [32] of 270 nM and a GI50 [33] of 270 nM. For the same molecule, the GI50 [34] was 170 nM.
